# Results as given in the Deep4Chem optical property database.
# Assay: solvent given as SMILES
smiles,measurement,setting,value
CC(C)c1cc(C(C)C)c(-c2nnc(-c3ccc(-n4c5ccccc5c5ccccc54)cc3)o2)c(C(C)C)c1,fluorescence lifetime,in CCO,2.19 ns
CCN(CC)c1ccc(C=Cc2nc3nc4ccccc4nc3s2)cc1,fluorescence lifetime,in CCCCCCC(C)O,0.991 ns
same,fluorescence lifetime,in CCOC(C)=O,1.36 ns
same,fluorescence lifetime,in CO,0.05 ns
same,fluorescence lifetime,in CS(C)=O,0.42 ns
same,fluorescence lifetime,in Cc1ccccc1,0.27 ns
same,fluorescence lifetime,in ClC(Cl)Cl,1.31 ns
same,fluorescence lifetime,in ClCCl,1.62 ns
COc1ccc(C2=c3sc(-c4ccc(OC)cc4)cc3=[N+]3C2=Nc2c(-c4ccc(OC)cc4)c4sc(-c5ccc(OC)cc5)cc4n2[B-]3(F)F)cc1,fluorescence lifetime,in ClC(Cl)Cl,1.69 ns
COc1cc(N(c2ccccc2)c2ccc(C=C(C#N)C#N)c(OC)c2)ccc1C=C(C#N)C#N,fluorescence lifetime,in C1COCCO1,0.925 ns
same,fluorescence lifetime,in CC#N,0.026 ns
same,fluorescence lifetime,in CC(C)=O,0.049 ns
same,fluorescence lifetime,in CCOC(C)=O,0.22 ns
same,fluorescence lifetime,in CN(C)C=O,0.23 ns
same,fluorescence lifetime,in CO,0.11 ns
same,fluorescence lifetime,in Cc1ccccc1,0.051 ns
same,fluorescence lifetime,in ClC(Cl)Cl,0.23 ns
same,fluorescence lifetime,in ClCCl,0.15 ns
CSc1sc(C(N)=O)c2nnn(C)c(=O)c12,fluorescence lifetime,in C1CCOC1,19 ns
same,fluorescence lifetime,in CC#N,21 ns
same,fluorescence lifetime,in CCO,14 ns
same,fluorescence lifetime,in CN(C)C=O,15 ns
same,fluorescence lifetime,in CO,11 ns
same,fluorescence lifetime,in CS(C)=O,5.4 ns
Cc1cccc(-c2cccc(C)c2)c1,fluorescence lifetime,in C1CCCCC1,18 ns
C(=C\c1ccc(Nc2ccccc2)cc1)/c1ccccc1,fluorescence lifetime,in CC#N,0.39 ns
same,fluorescence lifetime,in CCCCCC,0.34 ns
CCn1c2ccccc2c2cc(C#Cc3cc(C#Cc4ccc5c(c4)c4ccccc4n5CC)nc(N4CCCCC4)n3)ccc21,fluorescence lifetime,in C1CCOC1,2.9 ns
CCNc1cc2oc3c/c(=[NH+]\CC)c(C)cc-3c(-c3ccccc3C(=O)OCC)c2cc1C,fluorescence lifetime,in CC#N,4.18 ns
same,fluorescence lifetime,in CC(C)O,3.96 ns
same,fluorescence lifetime,in CCCCCCCCO,3.83 ns
same,fluorescence lifetime,in CCCCCCO,3.88 ns
same,fluorescence lifetime,in CCCCO,3.89 ns
same,fluorescence lifetime,in CCCO,3.95 ns
same,fluorescence lifetime,in CCO,3.96 ns
same,fluorescence lifetime,in CN(C)C=O,3.86 ns
same,fluorescence lifetime,in CO,3.7 ns
same,fluorescence lifetime,in O,4.22 ns
same,fluorescence lifetime,in [2H]O[2H],4.36 ns
O=C1/C(=C2\Sc3ccc(S(=O)(=O)O)cc3C2=O)Sc2ccc(S(=O)(=O)O)cc21,fluorescence lifetime,in CN(C)C=O,4.85 ns
same,fluorescence lifetime,in CO,0.99 ns
same,fluorescence lifetime,in CS(C)=O,0.16 ns
same,fluorescence lifetime,in O,0.13 ns
CCOC(=O)CN1C(=O)C2=C(c3ccc(C#N)cc3)N(CC(=O)OCC)C(=O)C2=C1c1ccc(C#N)cc1,fluorescence lifetime,in CC#N,6.67 ns
same,fluorescence lifetime,in CS(C)=O,6.5 ns
same,fluorescence lifetime,in Cc1ccccc1,6.48 ns
C=Cc1cc2ccc(N(CC)CC)cc2oc1=O,fluorescence lifetime,in CC#N,2.84 ns
O=C([O-])c1ccccc1C1=c2cc3c4c(c2Oc2c1cc1c5c2CCCN5CCC1)CCC[N+]=4CCC3,fluorescence lifetime,in CC#N,5.25 ns
same,fluorescence lifetime,in CC(C)O,4.36 ns
same,fluorescence lifetime,in CCCCCCCCO,4.17 ns
same,fluorescence lifetime,in CCCCCCO,4.27 ns
same,fluorescence lifetime,in CCCCO,4.3 ns
same,fluorescence lifetime,in CCCO,4.3 ns
same,fluorescence lifetime,in CCO,4.74 ns
same,fluorescence lifetime,in CN(C)C=O,4.78 ns
same,fluorescence lifetime,in CO,4.59 ns
same,fluorescence lifetime,in O,4.91 ns
same,fluorescence lifetime,in [2H]O[2H],4.8 ns
CC(C)(C)NC(=O)c1cccc2ccc3c4ccccc4c4ccccc4c3c12,fluorescence lifetime,in ClCCl,1.74 ns
CC(C)c1cc(C(C)C)c(B2c3ccccc3Oc3cc(N4c5ccccc5C5(c6ccccc6-c6ccccc65)c5ccccc54)ccc32)c(C(C)C)c1,fluorescence lifetime,in Cc1ccccc1,28 ns
CC1=CC(C)=[N+]2C1=C(c1c(-c3ccccn3)nc3ccccn13)c1c(C)cc(C)n1[B-]2(F)F,fluorescence lifetime,in ClCCl,6.9 ns
CC(C)c1cc(C(C)C)c(B2c3ccccc3Oc3cc(N4c5ccccc5C(C)(C)c5ccccc54)ccc32)c(C(C)C)c1,fluorescence lifetime,in Cc1ccccc1,33 ns
c1ccc(-c2nc(-c3nc(-c4ccccc4)c(-c4ccccc4)o3)oc2-c2ccccc2)cc1,fluorescence lifetime,in C1COCCO1,1.22 ns
